Test system: T1, β-glucosidase
T1 construct: gene beta-D-glucoside glucohydrolase; not purified to one protein, isoenzyme not defined
Test: p-nitrophenol release at […] nm; nonlinear fit (Solver)
Type: biochemical, Aspergillus sp.
Conditions: free enzyme, partially purified extract; acetate buffer, optimal pH (4.5) and temperature (65 °C optimum)

O=[N+]([O-])c1ccc(O[C@@H]2O[C@H](CO)[C@@H](O)[C@H](O)[C@H]2O)cc1 [4-Nitrophenyl-β-D-glucopyranoside]
Km: 1600 µM

From paper PMC3170910, “Screening of Supports for the Immobilization of β-Glucosidase” (Enzyme Research, 2011)
